According to patent US20070135448A1, “Use of cathepsin k inhibitors for treating of severe bone loss diseases” (priority 2003, published 2007):

Columns and labels:
postmenopausal women = test: 12-week double-blind placebo controlled phase IIA study, biochemical markers of bone resorption and formation; type: in vivo, human
Protocol: In a 12-week treatment, multicenter, double-blind, randomized, placebo-controlled, parallel group, a dose-ranging, safety, tolerability and efficacy trial with Compound A in postmenopausal women, with 3 weeks follow-up is conducted.
The primary objectives of the study are to assess the effect of Compound A on biochemical markers of bone resorption and bone formation, and to evaluate its safety and tolerability profile. Secondary objectives are to assess the changes in biochemical markers after the end of treatment, and to study the pharmacokinetics of Compound A and its metabolite during and after 12 weeks of treatment.
The population of subjects is normal healthy postmenopausal women. The reason for not investigating osteopenic women is the following: The efficacy endpoints of the study are biochemical markers of bone turnover. These variables are not directly correlated with BMD in man. […] They are at least 5 years postinenopause, mainly because biomarkers are expected to fluctuate less in these women than in the perimenopause. […]
Four doses are tested, 5, 10, 25, and 50 mg od. The duration of the study is 12 weeks, with a 3-week follow-up, 12 weeks treatment allows to assess the timecourse of biomarkers of both, bone resorption and bone formation and to ascertain that a steady-state in biomarkers is achieved.

[1] = test system: ovariectomized (OVX) cynomolgus monkeys; test: Tolerability in the 18 month OVX cynomolgus monkey study; type: in vivo; conditions: for Tolerability: 18 months
Protocol: (§1) One hundred purpose-bred female cynomolgus monkeys (Macaca fascicularis), 12-13 years of age with closed growth plates are used for this study conducted in compliance with GLP. Eighty animals underwent bilateral ovariectomy and monkeys assigned to the sham group (S) underwent sham surgery. They are dosed twice daily by oral gavage with vehicle (distilled water) or COMPOUND A maleate (COMPOUND A-AF) for 18 months (Table 1).
Ovariectomized (OVX) cynomolgus monkeys are treated orally for 18 months with 3, 10, or 50/30 mg/kg COMPOUND A maleate twice daily (bid).

[2] = test system: ovariectomized (OVX) cynomolgus monkeys; test: 3-point bending test of midshaft femur, OVX cynomolgus monkeys after 18 months treatment; type: in vivo, cynomolgus monkeys (Macaca fascicularis); conditions: mean ± SEM; for Max load: n = 19-20
Protocol: as §1
(§2) DXA (Dual Energy X-ray Absorptiometry) of the lumbar spine and femur is performed twice prior to and at 3 months intervals during treatment. Compression test of third lumbar vertebra and a three-point bending test for the midshaft femur are carried out according to standard procedures. In brief, the cranial and caudal ends of each vertebral body are cut off to obtain a vertebral body specimen with two parallel surfaces and a height of approximately 7 mm. Each specimen is placed between two plates and a load applied at a constant displacement rate of 6 mm/min until failure in an Instron Mechanical Testing Machine. The femur is placed on the lower supports of a three point bending fixture with the anterior side facing downward in an Instron Mechanical Testing Machine. Load is applied at a constant displacement rate of […] until failure.
(§3) All group data are first checked to ensure they meet the assumptions for parametric analysis (normality, homogeneity of variances). Data are transformed, if necessary, to meet the assumptions as closely as possible. Results using transformed data are used for interpretation. In general, data are analyzed by one-way analysis of variance (1-way ANOVA) for variables assessed only once during the treatment phase of the study. For variables assessed repeatedly during the treatment phase, a two-way (group, time) analysis of covariance (ANCOVA) with repeated measures on time is used. For each ANCOVA evaluation, average baseline data for individual animals is used as the covariate. Results are presented as Mean±SEM (standard error of mean).

[3] = test system: ovariectomized (OVX) cynomolgus monkeys; test: Compression test of third lumbar vertebra (LV3), OVX cynomolgus monkeys after 18 months treatment; type: in vivo, cynomolgus monkeys (Macaca fascicularis)
Protocol: as §1
DXA (Dual Energy X-ray Absorptiometry) of the lumbar spine and femur is performed twice prior to and at 3 months intervals during treatment. Compression test of third lumbar vertebra and a three-point bending test for the midshaft femur are carried out according to standard procedures. In brief, the cranial and caudal ends of each vertebral body are cut off to obtain a vertebral body specimen with two parallel surfaces and a height of approximately 7 mm. […]
All group data are first checked to ensure they meet the assumptions for parametric analysis (normality, homogeneity of variances). […] In general, data are analyzed by one-way analysis of variance (1-way ANOVA) for variables assessed only once during the treatment phase of the study. For variables assessed repeatedly during the treatment phase, a two-way (group, time) analysis of covariance (ANCOVA) with repeated measures on time is used. […]

[4] = test system: ovariectomized (OVX) cynomolgus monkeys; test: DXA bone mineral density of lumbar spine and femur in OVX cynomolgus monkeys, 18 months oral treatment; type: in vivo, cynomolgus monkeys (Macaca fascicularis)
Protocol: The present, 18 month long study is performed in order to assess the effect of COMPOUND A on bone in a non-human primate model of osteoporosis.
as §1, §2, §3

[5] = test system: ovariectomized (OVX) cynomolgus monkeys; test: Mineral apposition rate (MAR) at the femoral neck, OVX cynomolgus monkeys; type: in vivo, cynomolgus monkeys (Macaca fascicularis)
Protocol: as §1
Mineral apposition rate (MAR), an indicator of bone formation, is reduced at cancellous bone for the femoral neck by the mid and high dose (FIG. 6) consistent with the action of an inhibitor of bone turnover.

[6] = High group: 2 × 50 mg/kg/day 1st month, 2 × 30 months 2-18, oral
[7] = High group: 2 × 50 mg/kg/day 1st month, 2 × 30 months 2-18, oral, * p < 0.05 versus OVX
[8] = Low group: 2 × 3 mg/kg/day oral, 18 months
[9] = Low group: 2 × 3 mg/kg/day oral, 18 months, * p < 0.05 versus OVX
[10] = Mid group: 2 × 10 mg/kg/day oral, 18 months

CCCN1CCN(c2ccc(C(=O)NC3(C(=O)NCC#N)CCCCC3)cc2)CC1 [Compound A, N-[1-(cyanomethyl-carbamoyl)-cyclohexyl]-4-(4-propyl-piperazin-1-yl)-benzamide]
Bone resorption marker serum CTX versus placebo (postmenopausal women; all doses except 5 mg (10, 25, 50 mg od), all time points, p<0.001): significant difference
Action on bone resorption marker (sCTX1) (postmenopausal women; postmenopausal women, 5, 10, 25, 50 mg od, 12 weeks): potent and rapid action
Bone formation markers (serum osteocalcin, BSAP) over time (postmenopausal women; postmenopausal women, 12 weeks): the decrease of suppression is less than that seen with the bone resorption markers
Other resorption biomarkers (serum NTX, urinary NTX) (postmenopausal women; postmenopausal women, 12 weeks): support results seen with serum CTX
Food intake and body weight ([1]; 50 mg/kg bid oral, first month (then reduced to 30 mg/kg bid)): decreases in food intake and body weight
Tolerability ([1]; 3 and 10 mg/kg bid oral): well tolerated
Body weight gain ([1]; High group after reduction to 30 mg/kg bid, until end of study): remains significantly lower until the end of the study
Tolerability ([1]; OVX cynomolgus monkeys, oral twice daily, overall): generally well tolerated
Moment of inertia [2, 6]: 322 ± 20 mm^4
Ultimate strength [2, 6]: 196 ± 4 N/mm^2
Energy [2, 7]: 1276 ± 87 * mJ
Toughness [2, 7]: 3.6 ± 0.2 MJ/m³
Max load [2, 6]: 973 ± 45 N
Moment of inertia [2, 8]: 322 ± 20 mm^4
Ultimate strength [2, 8]: 195 ± 5 N/mm^2
Energy [2, 9]: 1305 ± 91 * mJ
Toughness [2, 9]: 3.7 ± 0.2 MJ/m³
Max load [2, 8]: 972 ± 38 N
Energy [2, 10]: 1126 ± 88 mJ
Moment of inertia [2, 10]: 290 ± 16 mm^4
Toughness [2, 10]: 3.3 ± 0.2 MJ/m³
Ultimate strength [2, 10]: 193 ± 3 N/mm^2
Max load [2, 10]: 894 ± 39 N
Maximum load in LV3 compression test versus OVX ([3]; all treatment groups (L, M, H), 18 months): increase maximum load
Maximum load in LV3 compression test, group H ([3]; group H, 50/30 mg/kg bid, p<0.01 versus OVX, p<0.05 versus Sham): increased above the group S level
Whole femur BMD (DXA) compared to group O (OVX) ([4]; all three dose levels, over the whole 18 months period): significant increase
Lumbar spine LV1-4 BMD (DXA), effect versus OVX ([4]; all three doses (3, 10, 50/30 mg/kg bid), 18 months, p<0.05 versus OVX): inhibit the effect of OVX
Lumbar spine LV1-4 BMD (DXA), efficacy of group H relative to other doses ([4]; group H, 50/30 mg/kg bid): tended to be less efficacious
Anterior-posterior diameter of the femur midshaft ([4]; groups L and H versus groups S and O): tends to be larger
Whole femur BMD (DXA) compared to sham ([4]; treated groups, significant at month 9 for groups L and H and at month 18 for group M): even above sham for most time points
Mineral apposition rate (MAR) at the periosteal side of the femoral neck ([5]; all doses, even the low dose is active): highly significantly increased
Mineral apposition rate (MAR) at cancellous bone for the femoral neck ([5]; mid and high dose): reduced
